Measured values taken from PubChem BioAssay AID686942 (Broad Institute, 2013).

Test system: V. cholerae SLS353 luxOD47E qrr4-GFP fluorescence
Test: LuxO inhibitors, qrr4 GFP production in absence of autoinducers, V. cholerae, confirmatory (AID 686942)

How did the AC50 turn out when `O=C(Nc1nnc(-c2ccc3c(c2)OCCO3)o1)C1CCCCC1` was run?
The AC50 was 2000 nM.

`COc1ccc2cc3c(NC(=O)c4ccco4)nn(C)c3nc2c1` was tested. Which AC50 did it give?
Its AC50 is 2000 nM.

Which AC50 does the source give for `Cn1nc(NC(=O)c2ccco2)c2cc3ccccc3nc21` here?
The AC50 was 2000 nM.
